Measurements taken from paper PMC3283556, “The Activities of Current Antimalarial Drugs on the Life Cycle Stages of Plasmodium: A Comparative Study with Human and Rodent Parasites” (PLoS Medicine, 2012).
Entries after “also recorded” stand apart in the source; their conditions may differ.

Assays:
[1] = tested on: P. falciparum asexual blood stage parasites (strains NF54, D6, K1, W2, 7G8, TM90C2A, V1/S); experiment: [3H]-hypoxanthine incorporation growth inhibition assay, asexual blood stage; assay type: cell-based, Plasmodium falciparum; conditions: Plasmodium falciparum
[2] = tested on: P. berghei oocyst formation; experiment: Standard membrane feed assay, P. berghei oocysts in A. stephensi; assay type: in vivo, Plasmodium berghei; conditions: for transmission-blocking effect on P. berghei oocysts (words): 10 µM
Description: Membrane feeds were performed as described previously. Briefly, PbGFPcon-infected mouse blood was mixed with compounds, immediately placed into membrane feeders (39°C) and offered for 30 min to 80–100 overnight-starved A. stephensi (SDA 500 strain). After 7–9 d at 19°C/80%RH, mosquito midguts were dissected out. Midguts were fixed with paraformaldehyde and oocyst number was determined microscopically by semi-automated analysis as previously described.
Supplementary file pmed.1001169.s001.tif: Figure S1 The transmission-blocking potential of selected compounds against P. berghei in standard membrane feeding assays. All antimalarials were screened at 10 µM in triplicate in independent experiments. The biological content of this assay spans gamete formation through to occyst development all within the gut of the mosquito. […] (TIF) Click here for additional data file.

[3] = tested on: P. berghei ookinete formation; experiment: P. berghei ookinete development assay; assay type: cell-based, Plasmodium berghei; conditions: 10 µM
Description: Compounds and P. berghei gametocyte-infected blood were dispensed in a 96-well plate containing ookinete medium. After 24 h at 19°C, Giemsa-stained ookinetes were counted under the microscope (×40) as previously described,[28].
Figure 3 The transmission-blocking potential of selected antimalarials in three bioassays that cover different phases of Plasmodium vector stage development. (A) Assays examined exflagellation (P. falciparum), ookinete formation (P. berghei), or oocyst formation (P. falciparum). All antimalarials were screened at 10 µM. (B) The biological content of the in vitro P. berghei ookinete assay spans gamete formation, fertilization, zygote development, and ookinete formation. Ookinete formation was insensitive to most of the antimalarials tested. […] (D) The in vitro P. falciparum exflagellation assay exposes mature gametocytes to antimalarials for 24 h before triggering exflagellation. […] All experiments in triplicate. (E) The in vivo P. falciparum oocyst assay differs from the P. berghei oocyst assay in that mature gametocytes were exposed to the antimalarials in culture for 24 h before feeding to mosquitoes. […] NPC1161-B, lumefantrine, halofantrine, and mefloquine +RS isomer were also active. (n = 4–61 observations; average ± standard error of the mean [SEM]).

Compound	IC50 [1]	IC50 ([1]; multi-drug-resistant strains K1, W2 and 7G8)	transmission-blocking effect on P. berghei oocysts (words) [2]	IC50 ([1]; strain 7G8)	IC50 ([1]; strain NF54)	effect on ookinete formation [3]	inhibition at 10 µM ([2]; Plasmodium berghei)
CCCCN(CCCC)CCC(O)c1cc2c(Cl)cc(Cl)cc2c2cc(C(F)(F)F)ccc12 (centres unmarked) [halofantrine]	< 4 nM	0.3 nM	impaired sporogony	–	–	–	–
COc1cc(N[C@H](C)CCCN)c2nccc(C)c2c1Oc1ccc(Cl)c(Cl)c1 [NPC-1161B]	–	–	most notable transmission-blocking activity; also recorded: showed potency	~50 nM	~500 nM	all assays except the ookinete assay	> 90%
